Measured values as given in patent publication US20020164348A1 (priority 2000, published 2002).

Assays:
[1] = molecular target: T1, poliovirus polymerase (Poliovirus type 1, UniProt P03300)
[2] = molecular target: T1, poliovirus polymerase; remark: listed apart in the source
[3] = molecular target: T1, poliovirus polymerase; remark: listed apart in the source
[4] = molecular target: lattices of poliovirus polymerase (Poliovirus type 1, UniProt P03300)
Sequence of lattices of poliovirus polymerase (P03300 1749-2209 limits assumed): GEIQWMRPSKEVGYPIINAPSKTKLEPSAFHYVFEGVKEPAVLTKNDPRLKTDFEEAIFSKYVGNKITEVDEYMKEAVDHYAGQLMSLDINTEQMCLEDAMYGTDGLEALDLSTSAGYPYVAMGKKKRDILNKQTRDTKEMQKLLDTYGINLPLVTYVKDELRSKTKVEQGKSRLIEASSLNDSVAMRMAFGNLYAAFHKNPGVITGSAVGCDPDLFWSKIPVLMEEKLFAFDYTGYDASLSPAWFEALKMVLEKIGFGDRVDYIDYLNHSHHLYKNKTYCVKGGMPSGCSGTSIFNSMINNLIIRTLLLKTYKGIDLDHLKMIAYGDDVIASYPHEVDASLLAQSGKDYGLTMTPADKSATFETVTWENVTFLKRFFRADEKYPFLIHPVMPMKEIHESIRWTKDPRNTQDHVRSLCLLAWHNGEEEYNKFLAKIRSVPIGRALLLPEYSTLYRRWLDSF

T1 sequence (P03300 1749-2209 limits assumed): as above

Q: Which results are given for “KPHKCTFEGCRKSYSRSTNLRRHLNSH (SEQ ID NO:5) [Peptide 1]”?
A: cooperativity of the elongation reaction [1]: loss of cooperativity; inhibition of poliovirus polymerase [1]: inhibits poliovirus polymerase effectively; inhibition of the polymerase reaction [1]: marked inhibition; amount of UTP incorporated [2]: diminished; UTP incorporation [3]: dramatic stimulation; sheets and tubes of polymerase by electron microscopy [4]: replaced by large aggregates and more narrow ribbons
